Tests used:
Experiment in all cases: relative viability (nuclei count vs DMSO), 5 days (fraction); higher = more cells survive
[1] = compound: CC1=C(C(=O)N2C=CSC2=N1)CCN3CCC(=C(C4=CC=CC=C4)C5=CC=C(C=C5)F)CC3 + Cc1nc(Nc2ncc(C(=O)Nc3c(C)cccc3Cl)s2)cc(N2CCN(CCO)CC2)n1 [Dasatinib] (partner 0.075 µM)
Outline: (§1)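 Medians of duplicate plates are given as relative viability. That measure is the nuclei count in treated wells divided by the count in vehicle wells. Counts were taken on 4× images of lung cancer cell lines in 1536-well plates, 5 days after pin-tool dosing the day after seeding with one drug alone or a fixed anchor-drug dose plus five library-drug doses (not always all listed) in √10 steps.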

[2] = compound: CC1=C(C(=O)N2C=CSC2=N1)CCN3CCC(=C(C4=CC=CC=C4)C5=CC=C(C=C5)F)CC3 + CCNC(=O)c1noc(-c2cc(C(C)C)c(O)cc2O)c1-c1ccc(CN2CCOCC2)cc1 [Luminespib] (partner 0.01 µM)
Outline: as §1

[3] = compound: CC1=C(C(=O)N2C=CSC2=N1)CCN3CCC(=C(C4=CC=CC=C4)C5=CC=C(C=C5)F)CC3 + CC(C)C[C@H](NC(=O)[C@H](Cc1ccccc1)NC(=O)c1cnccn1)B(O)O [Bortezomib] (partner 0.002 µM)
Outline: as §1

[4] = compound: CC1=C(C(=O)N2C=CSC2=N1)CCN3CCC(=C(C4=CC=CC=C4)C5=CC=C(C=C5)F)CC3 + CC1(C)CCC(c2ccc(Cl)cc2)=C(CN2CCN(c3ccc(C(=O)NS(=O)(=O)c4ccc(N[C@H](CCN5CCOCC5)CSc5ccccc5)c(S(=O)(=O)C(F)(F)F)c4)cc3)CC2)C1 [Navitoclax] (partner 0.5 µM)
Outline: as §1

| Cell Line | relative viability ([1]; first compound 0.08 µM) | relative viability ([1]; first compound 0.253 µM) | relative viability ([1]; first compound 0.8 µM) | relative viability ([1]; first compound 2.53 µM) | relative viability ([1]; first compound 8 µM) | relative viability ([2]; first compound 0.08 µM) | relative viability ([2]; first compound 0.253 µM) | relative viability ([2]; first compound 0.8 µM) | relative viability ([2]; first compound 2.53 µM) | relative viability ([2]; first compound 8 µM) | relative viability ([3]; first compound 0.08 µM) | relative viability ([3]; first compound 0.253 µM) | relative viability ([3]; first compound 0.8 µM) | relative viability ([3]; first compound 2.53 µM) | relative viability ([3]; first compound 8 µM) | relative viability ([4]; first compound 0.08 µM) | relative viability ([4]; first compound 0.253 µM) | relative viability ([4]; first compound 0.8 µM) | relative viability ([4]; first compound 2.53 µM) | relative viability ([4]; first compound 8 µM) |
| --- | --- | --- | --- | --- | --- | --- | --- | --- | --- | --- | --- | --- | --- | --- | --- | --- | --- | --- | --- | --- |
| 201T | 0.614 | 0.628 | 0.541 | 0.713 | 0.569 | 1.02 | 1.1 | 1.06 | 1.05 | 0.966 | 1.16 | 1.12 | 1.08 | 1.16 | 1.13 | 1.19 | 1.16 | 1.21 | 1.22 | 1.23 |
| A-427 | 0.788 | 0.585 | 0.715 | 0.696 | 0.457 | 0.91 | 0.919 | 0.923 | 1.15 | 0.88 | 1.07 | 1.08 | 0.984 | 1.03 | 0.834 | 1.08 | 0.877 | 0.915 | 0.973 | 0.948 |
| ABC-1 | 0.622 | 0.606 | 0.455 | 0.512 | 0.467 | 0.743 | 0.607 | 0.429 | 0.329 | 0.564 | 0.313 | 0.297 | 0.252 | 0.244 | 0.269 | – | – | – | – | – |
| BEN | 0.318 | 0.319 | 0.294 | 0.362 | 0.284 | 0.439 | 0.33 | 0.308 | 0.308 | 0.35 | 0.76 | 0.757 | 0.864 | 0.828 | 0.534 | 0.0374 | 0.0689 | 0.0632 | 0.23 | 0.108 |
| CAL-12T | 0.319 | 0.268 | 0.373 | 0.527 | 0.279 | 0.224 | 0.501 | 0.384 | 0.502 | 0.385 | – | 0.745 | 0.843 | 1.03 | 0.733 | 1.21 | 1.34 | 1.26 | 1.33 | 1.2 |
| COR-L23 | 0.383 | 0.341 | 0.457 | 0.59 | 0.403 | 0.61 | 0.831 | 0.785 | 0.671 | 0.504 | 0.701 | 0.74 | 1.02 | 1.18 | 0.397 | 0.895 | 1.06 | 1.04 | 1.47 | 0.525 |
| COR-L 105 | 0.416 | 0.32 | 0.241 | 0.372 | 0.294 | 0.673 | 0.817 | 0.798 | 0.809 | 0.659 | 0.83 | 0.691 | 0.75 | 0.919 | 0.568 | 0.765 | 0.708 | 0.724 | 0.808 | 0.634 |
| Calu-6 | – | – | – | – | – | – | – | – | – | – | 1.05 | 1.14 | 0.933 | 1.02 | 0.767 | 0.873 | 0.944 | 0.935 | 0.969 | 0.441 |
| ChaGo-K-1 | 0.598 | 0.635 | 0.59 | 0.639 | 0.547 | 0.462 | 0.648 | 0.644 | 0.514 | 0.444 | 1.24 | 0.989 | 0.761 | 1.34 | 0.94 | 1.19 | 0.888 | 0.663 | 1.69 | 1.11 |
| EBC-1 | – | – | – | – | – | – | – | – | – | – | 0.57 | 0.64 | 0.513 | 0.437 | 0.529 | 0.396 | 0.344 | 0.401 | 0.316 | 0.369 |
| EKVX | 0.359 | 0.631 | 0.519 | 0.434 | 0.549 | 0.768 | 0.915 | 0.936 | 0.871 | 0.825 | 0.826 | 0.923 | 1.18 | 1.01 | 0.684 | 0.718 | 0.775 | 0.961 | 0.848 | 0.741 |
| EMC-BAC-2 | 0.287 | 0.329 | 0.277 | 0.328 | 0.298 | 1.23 | 1.15 | 1.28 | 1.16 | 1.03 | 0.902 | 1.13 | 1.07 | 1.07 | 0.705 | 0.906 | 0.95 | 1.28 | 1.16 | 0.707 |
| EPLC-272H | 0.364 | 0.331 | 0.378 | 0.305 | 0.22 | 0.276 | 0.227 | 0.197 | 0.423 | 0.268 | – | 0.888 | 0.888 | 1.07 | 0.921 | – | 1.18 | 1.27 | 1.14 | 0.827 |
| H3255 | 0.349 | 0.357 | 0.307 | 0.339 | 0.375 | 0.796 | 0.892 | 0.786 | 0.961 | 0.709 | 0.909 | 0.831 | 0.704 | 0.873 | 0.732 | 0.416 | 0.393 | 0.557 | 0.542 | 0.419 |
| HARA | 0.243 | 0.23 | 0.265 | 0.229 | 0.136 | 0.682 | 0.73 | 0.688 | 0.477 | 0.426 | 1.08 | 1.47 | 1.13 | 1.21 | 1.05 | 1.18 | 1.33 | 1.16 | 1.23 | 0.537 |
| HCC-15 | 0.638 | 0.561 | 0.643 | 0.678 | 0.586 | 0.444 | 0.321 | 0.22 | 0.444 | 0.293 | 1.05 | 1.04 | 1.09 | 0.964 | 0.786 | 0.697 | 0.601 | 0.762 | 0.791 | 0.528 |
| HCC-44 | – | – | – | – | – | 1.37 | 1.51 | – | 1.3 | 0.736 | 0.926 | 0.769 | 0.896 | 1.06 | 0.856 | 0.989 | 1.28 | 1.01 | 1.13 | 0.477 |
| HCC-78 | 0.344 | 0.356 | 0.373 | 0.344 | 0.248 | – | – | – | – | – | 0.458 | 0.616 | 0.552 | 0.447 | 0.405 | 0.834 | 0.786 | 0.924 | 0.838 | 0.608 |
